Laboratory results published in the NIST ThermoML archive (doi:10.1021/je900212d).
Numbers after ± are expanded uncertainties.

Experiments:
[1] = 101.33 kPa, Liquid
[2] = xn = mol fraction of the nth substance listed; conditions: 101 kPa, Liquid

ClCCCl [1,2-dichloroethane]
[1]
Conditions	mass density [kg/m3]	viscosity [mPa·s]
288.15 K	1259 ± 8.9	0.87 ± 0.012
293.15 K	1251.9 ± 8.7	0.8112 ± 0.012
298.15 K	1247.4 ± 8.6	0.7597 ± 0.011
303.15 K	1239 ± 8.4	0.7112 ± 0.011
308.15 K	1231.2 ± 8.2	0.6747 ± 0.011
313.15 K	1222 ± 8	0.6269 ± 0.01

O=Cc1ccccc1 [benzaldehyde] + CCCO
[2]
Conditions	mass density [kg/m3]	viscosity [mPa·s]
288.15 K, x2 = 0.099	1038.8 ± 6.7	1.689 ± 0.025
288.15 K, x2 = 0.193	1021.8 ± 5.7	1.661 ± 0.025
288.15 K, x2 = 0.3112	997.7 ± 4.7	1.622 ± 0.023
288.15 K, x2 = 0.3949	980.8 ± 5.4	1.637 ± 0.023
288.15 K, x2 = 0.5004	956.4 ± 6.6	1.645 ± 0.023
288.15 K, x2 = 0.5997	932.9 ± 7.7	1.683 ± 0.023
288.15 K, x2 = 0.6932	–	1.774 ± 0.024
288.15 K, x2 = 0.8026	875.4 ± 10	1.873 ± 0.024
288.15 K, x2 = 0.9046	843.1 ± 12	2.075 ± 0.026
293.15 K, x2 = 0.0988	1034.2 ± 6.5	1.536 ± 0.023
293.15 K, x2 = 0.1927	1017 ± 5.5	1.505 ± 0.022
293.15 K, x2 = 0.3108	993.2 ± 4.9	1.468 ± 0.021
293.15 K, x2 = 0.3944	976.2 ± 5.7	1.475 ± 0.021
293.15 K, x2 = 0.5	951.6 ± 6.8	1.483 ± 0.021
293.15 K, x2 = 0.5992	928.6 ± 7.9	1.501 ± 0.021
293.15 K, x2 = 0.6927	–	1.588 ± 0.021
293.15 K, x2 = 0.8023	871.4 ± 11	1.669 ± 0.022
293.15 K, x2 = 0.9045	839.1 ± 12	1.84 ± 0.024
298.15 K, x2 = 0.099	1029.9 ± 6.2	1.405 ± 0.021
298.15 K, x2 = 0.1929	1012.8 ± 5.3	1.373 ± 0.021
298.15 K, x2 = 0.3111	989.2 ± 5.1	1.337 ± 0.019
298.15 K, x2 = 0.3948	971.3 ± 5.9	1.333 ± 0.019
298.15 K, x2 = 0.5003	947 ± 7	1.342 ± 0.019
298.15 K, x2 = 0.5996	923.7 ± 8.1	1.363 ± 0.019
298.15 K, x2 = 0.693	–	1.423 ± 0.019
298.15 K, x2 = 0.8025	867.6 ± 11	1.491 ± 0.02
298.15 K, x2 = 0.9046	835.3 ± 12	1.64 ± 0.021
303.15 K, x2 = 0.0989	1025.9 ± 6	1.292 ± 0.02
303.15 K, x2 = 0.1927	1008.1 ± 5	1.258 ± 0.019
303.15 K, x2 = 0.3108	984.8 ± 5.3	1.224 ± 0.018
303.15 K, x2 = 0.3945	967 ± 6.1	1.216 ± 0.018
303.15 K, x2 = 0.5	942.9 ± 7.2	1.223 ± 0.017
303.15 K, x2 = 0.5993	919.5 ± 8.3	1.237 ± 0.017
303.15 K, x2 = 0.6928	–	1.287 ± 0.018
303.15 K, x2 = 0.8023	863.6 ± 11	1.342 ± 0.018
303.15 K, x2 = 0.9045	831.6 ± 13	1.491 ± 0.019
308.15 K, x2 = 0.0988	1021.4 ± 5.8	1.193 ± 0.018
308.15 K, x2 = 0.1926	1003.4 ± 4.8	1.158 ± 0.018
308.15 K, x2 = 0.3106	980.1 ± 5.5	1.126 ± 0.017
308.15 K, x2 = 0.3942	962.7 ± 6.3	1.12 ± 0.017
308.15 K, x2 = 0.4997	937.8 ± 7.5	1.117 ± 0.016
308.15 K, x2 = 0.599	915.5 ± 8.5	1.128 ± 0.016
308.15 K, x2 = 0.6925	–	1.169 ± 0.016
308.15 K, x2 = 0.8022	858.9 ± 11	1.215 ± 0.016
308.15 K, x2 = 0.9044	827.3 ± 13	1.317 ± 0.017
313.15 K, x2 = 0.0986	1015.1 ± 5.5	1.104 ± 0.017
313.15 K, x2 = 0.1923	997.8 ± 4.7	1.069 ± 0.017
313.15 K, x2 = 0.3102	973.8 ± 5.8	1.039 ± 0.016
313.15 K, x2 = 0.3938	956.5 ± 6.6	1.024 ± 0.015
313.15 K, x2 = 0.4993	934 ± 7.7	1.026 ± 0.015
313.15 K, x2 = 0.5986	910.9 ± 8.8	1.033 ± 0.015
313.15 K, x2 = 0.6922	894.8 ± 9.5	1.063 ± 0.015
313.15 K, x2 = 0.8019	853.6 ± 12	1.099 ± 0.015
313.15 K, x2 = 0.9043	823.6 ± 13	1.188 ± 0.016

O=Cc1ccccc1 [benzaldehyde]
[1]
Conditions	mass density [kg/m3]	viscosity [mPa·s]
288.15 K	1056 ± 7.7	1.704 ± 0.026
293.15 K	1052.8 ± 7.6	1.558 ± 0.024
298.15 K	1047 ± 7.2	1.427 ± 0.022
303.15 K	1043.2 ± 7.1	1.316 ± 0.021
308.15 K	1039 ± 6.8	1.223 ± 0.019
313.15 K	1034.4 ± 6.6	1.131 ± 0.018
